Source: paper PMC6057649, “Development of NanoLuc-PEST expressing Leishmania mexicana as a new drug discovery tool for axenic- and intramacrophage-based assays” (PLoS Neglected Tropical Diseases, 2018)

System: NanoLuc-PEST expressing L. mexicana axenic amastigotes
Assay: microbe, parasite or virus in culture
Type: cell-based
Conditions: for Relative Bioluminescence (%) / viability at 2 µM / viability at 10 µM: 72 hours, relative to DMSO only control, n = 4; for viability at 2 µM / viability at 10 µM: Leishmania mexicana, read-out: Relative Bioluminescence (%)

CC1CC1C(=O)NC1CCN(CC2(c3ccccc3)CCCCC2)CC1 (centres unmarked) [MMV020120]
Relative Bioluminescence (%) (2 µM compound): 92.92% | Relative Bioluminescence (%) (10 µM compound): 99.97%

COc1ccccc1C(C)NCC(=O)Nc1cc(C(F)(F)F)ccc1Cl (centres unmarked) [MMV020321]
Relative Bioluminescence (%) (2 µM compound): 118.65% | Relative Bioluminescence (%) (10 µM compound): 131.13%

c1csc(-c2cnc3sc(NCC4CCOCC4)nn23)c1 [MMV010764]
Relative Bioluminescence (%) (2 µM compound): 69.50% | Relative Bioluminescence (%) (10 µM compound): 31.69%

O=C(Nc1cccc(-c2ccc(NCCCN3CCCC3)nc2)c1)c1ccccc1 [MMV023953]
Relative Bioluminescence (%) (2 µM compound): 85.42% | Relative Bioluminescence (%) (10 µM compound): 83.96%

Nc1nc(N)c2c3c(sc2n1)CN(Cc1ccccc1)CC3 [MMV688345]
Relative Bioluminescence (%) (2 µM compound): 105.25% | Relative Bioluminescence (%) (10 µM compound): 69.94%

CCN(CC)S(=O)(=O)c1ccc(Cl)c(C(=O)Nc2ccc3nc(C)sc3c2)c1 [MMV019721]
Relative Bioluminescence (%) (2 µM compound): 65.53% | Relative Bioluminescence (%) (10 µM compound): 69.43%

CC(C)n1ncc2c(C(=O)NCC(c3cccs3)N3CCOCC3)cc(-c3ccccc3)nc21 (centres unmarked) [MMV676406]
Relative Bioluminescence (%) (2 µM compound): 54.35% | Relative Bioluminescence (%) (10 µM compound): 35.79%

O=C(NC1=NCCS1)c1sc2cc(F)ccc2c1Cl [MMV676584]
Relative Bioluminescence (%) (2 µM compound): 83.30% | Relative Bioluminescence (%) (10 µM compound): 89.36%

Brc1cncc(-c2cc(NCCCn3ccnc3)nc(-c3ccccc3)n2)c1 [MMV661713]
Relative Bioluminescence (%) (2 µM compound): 76.01% | Relative Bioluminescence (%) (10 µM compound): 83.31%

CCN(CC)CCCN1CCN(C(=O)c2cccc(-c3noc(C(F)(F)F)n3)c2)CC1 [MMV022236]
Relative Bioluminescence (%) (2 µM compound): 74.51% | Relative Bioluminescence (%) (10 µM compound): 94.61%

Cc1ccc(S(=O)(=O)n2cc(-c3ccnc(N)c3)c3cc(Br)cnc32)cc1 [MMV024114]
Relative Bioluminescence (%) (2 µM compound): 103.63% | Relative Bioluminescence (%) (10 µM compound): 69.99%

Cc1nc(-c2ccccn2)nc(N2CCC(Cc3ccccc3)C2)c1Cl (centres unmarked) [MMV659004]
Relative Bioluminescence (%) (2 µM compound): 73.83% | Relative Bioluminescence (%) (10 µM compound): -1.44%

CCC(NC(=O)c1ccccc1NC(=O)c1ccc(C)cc1)C(=O)OC (centres unmarked) [MMV019551]
Relative Bioluminescence (%) (2 µM compound): 70.29% | Relative Bioluminescence (%) (10 µM compound): 42.20%

O=C(Nc1ccnc(-c2cccnc2)n1)c1cc(C(F)(F)F)cc(C(F)(F)F)c1 [MMV019838]
Relative Bioluminescence (%) (2 µM compound): 125.18% | Relative Bioluminescence (%) (10 µM compound): 86.78%

Cc1cc(=O)[nH]c(-n2nc(C)cc2C)n1 [MMV393995]
Relative Bioluminescence (%) (2 µM compound): 27.43% | Relative Bioluminescence (%) (10 µM compound): 3.00%

COc1cc(C2=NCCN2)ccc1-n1cc(-c2cccc(C3=NCCN3)c2)nn1 [MMV688474]
Relative Bioluminescence (%) (2 µM compound): 77.71% | Relative Bioluminescence (%) (10 µM compound): 76.43%

C[C@H](c1ccc2c(c1)CCCC2)N(C)c1ncc2c(N)nc(N)nc2n1 [MMV690103]
Relative Bioluminescence (%) (2 µM compound): 59.86% | Relative Bioluminescence (%) (10 µM compound): 0.48%

Cc1cc(Nc2ccncc2)n2nc(C)c(-c3ccccc3Cl)c2n1 [MMV016136]
Relative Bioluminescence (%) (2 µM compound): 83.56% | Relative Bioluminescence (%) (10 µM compound): 91.85%

CC(Oc1cccc(Cl)c1)C(=O)Nc1ccc2oc(-c3ccncc3)nc2c1 (centres unmarked) [MMV688472]
Relative Bioluminescence (%) (2 µM compound): 83.48% | Relative Bioluminescence (%) (10 µM compound): 74.96%

CNc1cc(C)nc(C2CN(C(=O)c3n[nH]c4ccccc34)CCO2)c1 (centres unmarked) [MMV689709]
Relative Bioluminescence (%) (2 µM compound): 77.39% | Relative Bioluminescence (%) (10 µM compound): 68.10%

COc1cc(-c2cc(-c3ccc(S(C)(=O)=O)cc3)cnc2N)ccc1O [MMV010576]
Relative Bioluminescence (%) (2 µM compound): 44.69% | Relative Bioluminescence (%) (10 µM compound): 21.84%

CCS(=O)(=O)N(Cc1ccco1)Cc1cc2ccc(C)cc2[nH]c1=O [MMV676398]
Relative Bioluminescence (%) (2 µM compound): 115.47% | Relative Bioluminescence (%) (10 µM compound): 84.49%

Cc1ccc(NC(=O)c2cc(S(=O)(=O)NC(C)(C)C)ccc2C)nc1 [MMV020289]
Relative Bioluminescence (%) (2 µM compound): 103.50% | Relative Bioluminescence (%) (10 µM compound): 71.21%

COc1cc(C2=NCCN2)ccc1-c1cn(-c2cccc(C3=NCCN3)c2)nn1 [MMV688407]
Relative Bioluminescence (%) (2 µM compound): 99.20% | Relative Bioluminescence (%) (10 µM compound): 50.94%

CN1CCN(c2nccc3nc(-c4ccc(F)c(F)c4)[nH]c23)CC1 [MMV676260]
Relative Bioluminescence (%) (2 µM compound): 69.43% | Relative Bioluminescence (%) (10 µM compound): 85.22%

NCCN(C(=O)c1ccc(Cl)cc1Cl)c1ccc(OCc2ccc(Cl)cc2)cc1 [MMV688371]
Relative Bioluminescence (%) (2 µM compound): 95.57% | Relative Bioluminescence (%) (10 µM compound): 61.94%

CC1COC(Cn2cncn2)(c2ccc(Oc3ccc(Cl)cc3)cc2Cl)O1 (centres unmarked) [MMV688943, Difenoconazol]
Relative Bioluminescence (%) (2 µM compound): 26.19% | Relative Bioluminescence (%) (10 µM compound): 8.96%

COc1cccc(-c2cc3c(Nc4cccnc4)nccc3[nH]2)c1 [MMV392832]
Relative Bioluminescence (%) (2 µM compound): 70.60% | Relative Bioluminescence (%) (10 µM compound): 51.50%

Cc1cc(NCCc2ccccc2)nc(NC(=N)Nc2ccc(Cl)cc2)n1 [MMV021660]
Relative Bioluminescence (%) (2 µM compound): 89.16% | Relative Bioluminescence (%) (10 µM compound): 56.67%

O=C(C(Cc1c[nH]c2ccccc12)NS(=O)(=O)c1ccc(Cl)cc1)N1CCCCC1 (centres unmarked) [MMV085210]
Relative Bioluminescence (%) (2 µM compound): 65.83% | Relative Bioluminescence (%) (10 µM compound): 73.33%

O=C(NCc1ccco1)N1CCN(Cc2ccc(Cl)s2)CC1 [MMV688555]
Relative Bioluminescence (%) (2 µM compound): 63.56% | Relative Bioluminescence (%) (10 µM compound): 83.23%

N#Cc1ccc(-c2cnc(N)c(-c3ccc(C(N)=O)cc3)n2)cc1 [MMV085499]
Relative Bioluminescence (%) (2 µM compound): 98.08% | Relative Bioluminescence (%) (10 µM compound): 54.27%

Clc1ccc(-n2cc(COc3ccnc4ccccc34)nn2)cc1 [MMV675994]
Relative Bioluminescence (%) (2 µM compound): 74.96% | Relative Bioluminescence (%) (10 µM compound): 81.16%

O=S(=O)(c1ccc(Cl)cc1)N1CCN(C(=S)NCc2ccco2)CC1 [MMV000858]
Relative Bioluminescence (%) (2 µM compound): 100.91% | Relative Bioluminescence (%) (10 µM compound): 108.52%

COc1cccc(-n2nnnc2S(=O)(=O)Cc2ccccc2)c1 [MMV676388]
Relative Bioluminescence (%) (2 µM compound): 0.56% | Relative Bioluminescence (%) (10 µM compound): 0.16% | EC50 (hit compounds from the axenic amastigote screen, S3 Table, read-out: EC50, Axenic Amastigotes): 730 nM

CN1CCN(S(=O)(=O)c2ccc(-c3ccc4c(Nc5ncc(Cl)cn5)ccnc4c3)cc2)CC1 [MMV688283]
Relative Bioluminescence (%) (2 µM compound): 58.40% | Relative Bioluminescence (%) (10 µM compound): 101.72%

CC(C)(C)OC(=O)N1CCC(Cn2nc(-c3cnc4ccccc4c3)c3c(N)ncnc32)CC1 [MMV688364]
Relative Bioluminescence (%) (2 µM compound): 80.73% | Relative Bioluminescence (%) (10 µM compound): 58.45%

CC(C)(C)c1cnc(NC(=O)c2ccccc2O)s1 [MMV495543]
Relative Bioluminescence (%) (2 µM compound): 70.90% | Relative Bioluminescence (%) (10 µM compound): 27.02%

COc1ccc(C2=NN(C3CCCCCC3)C(=O)[C@@H]3CC=CC[C@H]23)cc1OCCCCOc1ccc(-c2nn[nH]n2)cc1 [MMV690027]
Relative Bioluminescence (%) (2 µM compound): 96.72% | Relative Bioluminescence (%) (10 µM compound): 33.47%

Cc1cc(C(=O)Nc2cnn(Cc3ccc(Cl)cc3Cl)c2)no1 [MMV009054]
Relative Bioluminescence (%) (2 µM compound): 106.08% | Relative Bioluminescence (%) (10 µM compound): 100.62%

CCc1nc2ccc(Cl)cn2c1C(=O)NCc1ccc(N2CCC(c3ccc(OC(F)(F)F)cc3)CC2)cc1 [MMV687696]
Relative Bioluminescence (%) (2 µM compound): 113.56% | Relative Bioluminescence (%) (10 µM compound): 57.87%

CNCCC(Oc1ccc(C(F)(F)F)cc1)c1ccccc1 (centres unmarked) [MMV001561, Fluoxetine, reference compound]
viability at 2 µM (2 µM compound): 90.4% | viability at 10 µM (10 µM compound): 52.4%

NCC[C@H](O)C(=O)N[C@@H]1C[C@H](N)[C@@H](O[C@H]2O[C@H](CN)[C@@H](O)[C@H](O)[C@H]2O)[C@H](O)[C@H]1O[C@H]1O[C@H](CO)[C@@H](O)[C@H](N)[C@H]1O [MMV687796, Amikacin, reference compound]
viability at 2 µM (2 µM compound): 79.3% | viability at 10 µM (10 µM compound): 58.2%

CCOc1ccc2cc(-c3nn(C(C)(C)C)c(N)c3C(N)=O)cnc2c1 [MMV688853]
Relative Bioluminescence (%) (2 µM compound): 34.19% | Relative Bioluminescence (%) (10 µM compound): 42.96%

O=C(C1CCN(c2cc(-n3cccc3)ncn2)CC1)N1CCc2ccccc2C1 [MMV687172]
Relative Bioluminescence (%) (2 µM compound): 73.27% | Relative Bioluminescence (%) (10 µM compound): 54.36%

CCC(=O)Nc1ccccc1C(=O)Nc1ccccn1 [MMV202553]
Relative Bioluminescence (%) (2 µM compound): 76.92% | Relative Bioluminescence (%) (10 µM compound): 77.09%

COc1ccc(CN2CCOc3ccc(C(C)(O)CN(C)C)cc3C2)cc1C (centres unmarked) [MMV008439]
Relative Bioluminescence (%) (2 µM compound): 83.20% | Relative Bioluminescence (%) (10 µM compound): 126.81%

c1ccc(-c2cc(N3CCCCC3)c3ccccc3n2)nc1 [MMV560185]
Relative Bioluminescence (%) (2 µM compound): 64.27% | Relative Bioluminescence (%) (10 µM compound): 94.77%

Cc1nc(-c2cccc(NCc3ccccc3)c2)[nH]c1C [MMV023227]
Relative Bioluminescence (%) (2 µM compound): 80.48% | Relative Bioluminescence (%) (10 µM compound): 64.23%

Cc1cc(C2=NOC(c3cc(Cl)c(F)c(Cl)c3)(C(F)(F)F)C2)ccc1C(=O)NCc1ccc2c(c1)C(C)(C)OB2O (centres unmarked) [MMV687776]
Relative Bioluminescence (%) (2 µM compound): 57.43% | Relative Bioluminescence (%) (10 µM compound): -1.15%
